Results published in patent US8440830B2, “Tetrahydro-fused pyridines as histone deacetylase inhibitors” (4SC AG, priority 2007, dated 2013).

tested on: A549 NSCLC cells; test: Cellular cytotoxicity assay (Alamar Blue), A549; format: cell-based; details: Homo sapiens, 72 h, upper end given as ≧100, read-out: IC50 (μM), cytotoxicity towards A549 NSCLC cells
Experimental: The anti-proliferative activity of the histone deacetylase inhibitory compounds as described herein, is evaluated using the following cell lines: HeLa and HeLa-KB (cervical carcinoma), H460 (non small cell lung cancer), A549 (non-small cell lung cancer), MCF7 (breast carcinoma), MCF10A (normal, non tumorigenic breast epithelial), MDA-MB468 (breast carcinoma), MDA-MB435 (breast carcinoma), MDA-MB231 (breast carcinoma), SKBR-3 (breast carcinoma), SKOV-3 (ovarial carcinoma), A-2780 (ovarial carcinoma), RKO (colon carcinoma), HCT-15 (colon carcinoma), HCT-116 (colon carcinoma), PC3 (prostate carcinoma), BPH1 (benign prostate hyperplasia), AsPC1 (pancreatic carcinoma), Ca127 (tongue carcinoma), A-431 (vulva carcinoma), Hec1A (endometrial carcinoma), Saos-2 (osteosarcoma), U87MG (glioblastoma), WM266-4 (melanoma), K562 (chronic myeloid leukemia), EOL1 (acute hypereosinophilic myeloid leukemia), CCRF-CEM and CCRF-CEM VCR1000 (acute lymphoblastic leukemia sensitive and resistant towards Vincristine). For quantification of cellular proliferation/living cells the Alamar Blue (Resazurin) cell viability assay is applied (O'Brien et al. Eur J Biochem 267, 5421-5426, 2000). In this assay Resazurin is reduced to the fluorescent resorufine by cellular dehydrogenase activity, correlating with viable, proliferating cells. The examples are dissolved as 20 mM solutions in dimethylsulfoxide (DMSO) and subsequently diluted in semi-logarithmic steps. Cell lines are seeded at respective density into 96 well flat bottom plates in a volume of 200 μl per well. 24 h after seeding 1 μl each of the compound dilutions are added into each well of the 96 well plate. Each compound dilution is tested as quadruplicates. Wells containing untreated control cells are filled with 200 μl DMEM medium containing 0.5% v:v DMSO. The cells are then incubated with the compounds for 72 h at 37° C. in a humidified atmosphere containing 5% carbon dioxide. To determine the viability of the cells, 20 μl of a Resazurin solution (Sigma; 90 mg/l) are added. After 4 h incubation at 37° C. the fluorescence is measured at an extinction of λ=544 nm and an emission of λ=590 nm. For the calculation of the cell viability the emission value from untreated cells is set as 100% viability and the emission rates of treated cells are set in relation to the values of untreated cells. Viabilities are expressed as % values. The corresponding IC50 values of the compounds for cytotoxic activity are determined from the concentration-effect curves by means of non-linear regression.

Row | SMILES | IC50 [µM]
1 | COc1ccc(NC(=O)N2CCc3nc(C(=O)Nc4cc(N(C)C)ccc4N)sc3C2)cc1 [Example 53, N^2-[2-amino-5-(dimethylamino)phenyl]N^5-(4-methoxyphenyl)-6,7-dihydro[1,3]thiazolo[5,4-c]pyridine-2,5(4H)-dicarboxamide] | ≥ 0.2
2 | COc1ccc(NC(=O)N2CCc3nc(C(=O)Nc4cc(-c5cccs5)ccc4N)sc3C2)cc1 [Example 54, N^2-[2-amino-5-(2-thienyl)phenyl]-N^5-(4-methoxyphenyl)-6,7-dihydro[1,3]thiazolo[5,4-c]pyridine-2,5(4H)-dicarboxamide] | ≥ 0.2
3 | CN(C)c1ccc(NC(=O)N2CCc3nc(C(=O)Nc4cc(-c5cccs5)ccc4N)sc3C2)cc1 [Example 55, N^2-[2-amino-5-(2-thienyl)phenyl]-N^5-[4-(dimethylamino)phenyl]-6,7-dihydro[1,3]thiazolo[5,4-c]pyridine-2,5(4H)-dicarboxamide] | ≥ 0.2
4 | COc1ccc(NC(=O)N2CCc3nc(C(=O)Nc4cc(-c5ccsc5)ccc4N)sc3C2)cc1 [Example 56, N^2-[2-amino-5-(3-thienyl)phenyl]-N^5-(4-methoxyphenyl)-6,7-dihydro[1,3]thiazolo[5,4-c]pyridine-2,5(4H)-dicarboxamide] | ≥ 0.2
5 | Nc1ccccc1NC(=O)c1nc2c(s1)CN(C(=O)Nc1cccc3cnccc13)CC2 [Example 62, N^2-(2-aminophenyl)-N^5-isoquinolin-5-yl-6,7-dihydro[1,3]thiazolo[5,4-c]pyridine-2,5(4H)-dicarboxamide] | ≥ 0.2
6 | CN(C)c1ccc(NC(=O)C(=O)N2CCc3nc(C(=O)Nc4ccccc4N)sc3C2)cc1 [Example 64, N-(2-aminophenyl)-5-[{[4-(dimethylamino)phenyl]amino}(oxo)acetyl]-4,5,6,7-tetrahydro[1,3]thiazolo[5,4-c]pyridine-2-carboxamide] | ≥ 0.2
7 | COc1ccc(NC(=O)C(=O)N2CCc3nc(C(=O)Nc4ccccc4N)sc3C2)cc1 [Example 65, N-(2-aminophenyl)-5-{[(4-methoxyphenyl)amino](oxo)acetyl}-4,5,6,7-tetrahydro[1,3]thiazolo[5,4-c]pyridine-2-carboxamide] | ≥ 0.2
8 | COc1ccc(NC(=O)C(=O)N2CCc3nc(C(=O)Nc4ccccc4N)sc3C2)cc1OC [Example 66, N-(2-aminophenyl)-5-{[(3,4-dimethoxyphenyl)amino](oxo)acetyl}-4,5,6,7-tetrahydro[1,3]thiazolo[5,4-c]pyridine-2-carboxamide] | ≥ 0.2
9 | Nc1ccccc1NC(=O)c1nc2c(s1)CN(C(=O)C(=O)NC1CCC(c3ccncc3)CC1)CC2 (stereo not drawn) [Example 67, N-(2-aminophenyl)-5-{oxo[(4-pyridin-4-ylcyclohexyl)amino]acetyl}-4,5,6,7-tetrahydro[1,3]thiazolo[5,4-c]pyridine-2-carboxamide] | ≥ 0.2
10 | Nc1ccccc1NC(=O)c1nc2c(s1)CN(C(=O)C(=O)Nc1cccc3cnccc13)CC2 [Example 68, N-(2-aminophenyl)-5-[(isoquinolin-5-ylamino)(oxo)acetyl]-4,5,6,7-tetrahydro[1,3]thiazolo[5,4-c]pyridine-2-carboxamide] | ≥ 0.2
11 | Nc1ccccc1NC(=O)c1nc2c(s1)CN(C(=O)C(=O)NC1CCC(c3cccnc3)CC1)CC2 (stereo not drawn) [Example 69, N-(2-aminophenyl)-5-{oxo[(4-pyridin-3-ylcyclohexyl)amino]acetyl}-4,5,6,7-tetrahydro[1,3]thiazolo[5,4-c]pyridine-2-carboxamide] | ≥ 0.2
12 | COc1ccc(NC(=O)C(=O)N2CCc3nc(C(=O)Nc4ccccc4N)sc3C2)cn1 [Example 70, N-(2-aminophenyl)-5-{[(6-methoxypyridin-3-yl)amino](oxo)acetyl}-4,5,6,7-tetrahydro[1,3]thiazolo[5,4-c]pyridine-2-carboxamide] | ≥ 0.2
13 | CN(C)c1ccc(NC(=O)C(=O)N2CCc3nc(C(=O)Nc4ccccc4N)sc3C2)cn1 [Example 71, N-(2-aminophenyl)-5-[{[6-(dimethylamino)pyridin-3-yl]amino}(oxo)acetyl]-4,5,6,7-tetrahydro[1,3]thiazolo[5,4-c]pyridine-2-carboxamide] | ≥ 0.2
14 | Nc1ccccc1NC(=O)c1nc2c(s1)CN(C(=O)C(=O)Nc1ccc(OC(F)(F)F)cc1)CC2 [Example 72, N-(2-aminophenyl)-5-(oxo{[4-(trifluoromethoxy)phenyl]amino}acetyl)-4,5,6,7-tetrahydro[1,3]thiazolo[5,4-c]pyridine-2-carboxamide] | ≥ 0.2
15 | Nc1ccccc1NC(=O)c1nc2c(s1)CN(C(=O)C(=O)Nc1ccc(N3CCOCC3)nc1)CC2 [Example 73, N-(2-aminophenyl)-5-{[(6-morpholin-4-ylpyridin-3-yl)amino](oxo)acetyl}-4,5,6,7-tetrahydro[1,3]thiazolo[5,4-c]pyridine-2-carboxamide] | ≥ 0.2
16 | Nc1ccccc1NC(=O)c1nc2c(s1)CN(C(=O)C(=O)Nc1ccc3c(c1)OCO3)CC2 [Example 74, N-(2-aminophenyl)-5-[(1,3-benzodioxol-5-ylamino)(oxo)acetyl]-4,5,6,7-tetrahydro[1,3]thiazolo[5,4-c]pyridine-2-carboxamide] | ≥ 0.2
17 | Cc1ccc(NC(=O)C(=O)N2CCc3nc(C(=O)Nc4ccccc4N)sc3C2)cc1 [Example 75, N-(2-aminophenyl)-5-{[(4-methylphenyl)amino](oxo)acetyl}-4,5,6,7-tetrahydro[1,3]thiazolo[5,4-c]pyridine-2-carboxamide] | ≥ 0.2
18 | Cc1ccc(NC(=O)C(=O)N2CCc3nc(C(=O)Nc4ccccc4N)sc3C2)nc1 [Example 76, N-(2-aminophenyl)-5-{[(5-methylpyridin-2-yl)amino](oxo)acetyl}-4,5,6,7-tetrahydro[1,3]thiazolo[5,4-c]pyridine-2-carboxamide] | ≥ 0.2
19 | Nc1ccccc1NC(=O)c1nc2c(s1)CN(C(=O)C(=O)Nc1cnc3ccccc3c1)CC2 [Example 77, N-(2-aminophenyl)-5-[oxo(quinolin-3-ylamino)acetyl]-4,5,6,7-tetrahydro-[1,3]thiazolo[5,4-c]pyridine-2-carboxamide] | ≥ 0.2
20 | COc1ccc(NC(=O)C(=O)N2CCc3nc(C(=O)Nc4cc(OC)ccc4N)sc3C2)cc1 [Example 78, N-(2-amino-5-methoxyphenyl)-5-{[(4-methoxyphenyl)amino](oxo)acetyl}-4,5,6,7-tetrahydro[1,3]thiazolo[5,4-c]pyridine-2-carboxamide] | ≥ 0.2
21 | CCCCNC(=O)C(=O)N1CCc2nc(C(=O)Nc3ccccc3N)sc2C1 [Example 79, N-(2-aminophenyl)-5-[(butylamino)(oxo)acetyl]-4,5,6,7-tetrahydro[1,3]thiazolo[5,4-c]pyridine-2-carboxamide] | ≥ 0.2
22 | COc1ccc(NC(=O)C(=O)N2CCc3nc(C(=O)Nc4cc(C(C)C)ccc4N)sc3C2)cc1OC [Example 80, N-(2-amino-5-isopropylphenyl)-5-{[(3,4-dimethoxyphenyl)amino](oxo)acetyl}-4,5,6,7-tetrahydro[1,3]thiazolo[5,4-c]pyridine-2-carboxamide] | ≥ 0.2
23 | COc1ccc(NC(=O)C(=O)N2CCc3nc(C(=O)Nc4cc(C(C)C)ccc4N)sc3C2)cc1 [Example 81, N-(2-amino-5-isopropylphenyl)-5-{[(4-methoxyphenyl)amino](oxo)acetyl}-4,5,6,7-tetrahydro[1,3]thiazolo[5,4-c]pyridine-2-carboxamide] | ≥ 0.2
24 | COc1ccc(N)c(NC(=O)c2nc3c(s2)CN(C(=O)C(=O)Nc2ccc(OC)c(OC)c2)CC3)c1 [Example 82, N-(2-amino-5-methoxyphenyl)-5-{[(3,4-dimethoxyphenyl)amino](oxo)acetyl}-4,5,6,7-tetrahydro[1,3]thiazolo[5,4-c]pyridine-2-carboxamide] | ≥ 0.2
25 | CCCCNC(=O)C(=O)N1CCc2nc(C(=O)Nc3cc(OC)ccc3N)sc2C1 [Example 83, N-(2-amino-5-methoxyphenyl)-5-[(butylamino)(oxo)acetyl]-4,5,6,7-tetrahydro[1,3]thiazolo[5,4-c]pyridine-2-carboxamide] | ≥ 0.2
26 | CCCCNC(=O)C(=O)N1CCc2nc(C(=O)Nc3cc(C(C)C)ccc3N)sc2C1 [Example 84, N-(2-amino-5-isopropylphenyl)-5-[(butylamino)(oxo)acetyl]-4,5,6,7-tetrahydro[1,3]thiazolo[5,4-c]pyridine-2-carboxamide] | ≥ 0.2
27 | Nc1ccccc1NC(=O)c1nc2c(s1)CN(C(=O)C(=O)NCc1ccccc1)CC2 [Example 85, N-(2-aminophenyl)-5-[(benzylamino)(oxo)acetyl]-4,5,6,7-tetrahydro[1,3]thiazolo[5,4-c]pyridine-2-carboxamide] | ≥ 0.2
